pIC50: −log10 of the molar value. The source made the active and inactive calls. No cut-off for these calls is given here.
What was measured:
[1] = tested on: B16-F10; test: Antitumor immunity in C57 mouse implanted with mouse B16-F10 cells assessed as increase in CD3+ CD4+ helper T cells in tumor at 5 mg/kg, ip administered every day for 14 days by flow cytometric analysis (reference value: 0.332%); assay type: functional; conditions: time 14 day
[2] = Resistance index, ratio of IC50 for antiproliferative activity against paclitaxel resistant human A2780/Taxol cells to IC50 for antiproliferative activity against parental human A2780S cells; assay type: functional
[3] = tested on: MCF7; test: Antiproliferative activity against human MCF7 cells assessed as inhibition of cell proliferation incubated for 48 hrs by MTT assay; assay type: functional, cell-based; conditions: MCF7, 48 h
[4] = tested on: HeLa; test: Antiproliferative activity against human HeLa cells assessed as inhibition of cell proliferation incubated for 48 hrs by MTT assay; assay type: functional, cell-based
[5] = biological target: Tubulin (Sus scrofa) (UniProt P02554+P02550); test: (§1) Inhibition of pig brain tubulin polymerization in the presence of GTP by spectrophotometric analysis; assay type: tissue-based
[6] = biological target: Tubulin (Sus scrofa, UniProt P02554+P02550); test: as §1; assay type: tissue-based
[7] = tested on: HepG2; test: Cell cycle arrest in human HepG2 cells assessed as accumulation of cells at G1 phase at 0.5 nM incubated for 48 hrs by RNaseA/PI staining based flow cytometric analysis (reference value: 56.11%); assay type: functional
[8] = tested on: HepG2; test: Cell cycle arrest in human HepG2 cells assessed as accumulation of cells at S phase at 0.5 nM incubated for 48 hrs by RNaseA/PI staining based flow cytometric analysis (reference value: 23.81%); assay type: functional
[9] = tested on: HepG2; test: Cell cycle arrest in human HepG2 cells assessed as accumulation of cells at G1 phase at 1 nM incubated for 48 hrs by RNaseA/PI staining based flow cytometric analysis (reference value: 56.11%); assay type: functional
[10] = tested on: HepG2; test: Cell cycle arrest in human HepG2 cells assessed as accumulation of cells at G1 phase at 5 nM incubated for 48 hrs by RNaseA/PI staining based flow cytometric analysis (reference value: 56.11%); assay type: functional
[11] = tested on: HepG2; test: Cell cycle arrest in human HepG2 cells assessed as accumulation of cells at G2 phase at 5 nM incubated for 48 hrs by RNaseA/PI staining based flow cytometric analysis (reference value: 17.37%); assay type: functional
[12] = tested on: HepG2; test: Induction of apoptosis in human HepG2 cells assessed as viable cells at 0.5 nM incubated for 48 hrs by Annexin V-FITC/PI staining based flow cytometric analysis (reference value: 87.6%); assay type: functional; conditions: read-out: Activity
[13] = tested on: HepG2; test: Induction of apoptosis in human HepG2 cells assessed as necrotic cells at 0.5 nM incubated for 48 hrs by Annexin V-FITC/PI staining based flow cytometric analysis (reference value: 0.443%); assay type: functional
[14] = tested on: HepG2; test: Induction of apoptosis in human HepG2 cells assessed as viable cells at 1 nM incubated for 48 hrs by Annexin V-FITC/PI staining based flow cytometric analysis (reference value: 87.6%); assay type: functional; conditions: read-out: Activity
[15] = tested on: HepG2; test: Induction of apoptosis in human HepG2 cells assessed as late apoptotic cells at 1 nM incubated for 48 hrs by Annexin V-FITC/PI staining based flow cytometric analysis (reference value: 4.96 %); assay type: functional
[16] = tested on: HepG2; test: Induction of apoptosis in human HepG2 cells assessed as early apoptotic cells at 5 nM incubated for 48 hrs by Annexin V-FITC/PI staining based flow cytometric analysis (reference value: 7.01 %); assay type: functional
[17] = tested on: HepG2; test: Induction of apoptosis in human HepG2 cells assessed as necrotic cells at 5 nM incubated for 48 hrs by Annexin V-FITC/PI staining based flow cytometric analysis (reference value: 0.443%); assay type: functional
[18] = tested on: HepG2; test: Antimigratory activity in human HepG2 cells assessed as reduction in recovery area at 0.5 nM incubated for 24 hrs by wound healing assay (reference value: 65.84%); assay type: functional; set-up: scale not given: the % may be the effect or the level left
[19] = tested on: HepG2; test: Antimigratory activity in human HepG2 cells assessed as reduction in recovery area at 1 nM incubated for 24 hrs by wound healing assay (reference value: 65.84%); assay type: functional; set-up: scale not given: the % may be the effect or the level left
[20] = tested on: HUVEC; test: Disruption of vasculature in HUVEC cells assessed as interruption of capillary like networks incubated for 6 hrs by phase contrast microscopic analysis; assay type: functional, cell-based; conditions: Homo sapiens, dose 0.5-5 nM
[21] = Cytotoxicity against HUVEC cells assessed as inhibition of cell proliferation incubated for 24 hrs by MTT assay; assay type: toxicity, cell-based; conditions: human
[22] = AUC(0 to t) in Sprague-Dawley rat at 2 mg/kg, iv measured upto 12 hrs by UPLC-MS/ESI analysis; assay type: ADME, organism-based; set-up: time < 12 hrs, dose 2 mg/kg, route iv; conditions: in vivo
[23] = AUC(0 to infinity) in Sprague-Dawley rat at 2 mg/kg, iv measured upto 12 hrs by UPLC-MS/ESI analysis; assay type: ADME, organism-based; set-up: dose 2 mg/kg, time < 12 hrs, route iv; conditions: in vivo
[24] = MRT(0 to t) in Sprague-Dawley rat at 2 mg/kg, iv measured upto 12 hrs by UPLC-MS/ESI analysis; assay type: ADME, organism-based; conditions: in vivo
[25] = MRT(0 to infinity) in Sprague-Dawley rat at 2 mg/kg, iv measured upto 12 hrs by UPLC-MS/ESI analysis; assay type: ADME, organism-based; conditions: in vivo
[26] = Half-life in Sprague-Dawley rat at 2 mg/kg, iv measured upto 12 hrs by UPLC-MS/ESI analysis; assay type: ADME, organism-based; conditions: in vivo
[27] = Tmax in Sprague-Dawley rat at 2 mg/kg, iv measured upto 12 hrs by UPLC-MS/ESI analysis; assay type: ADME, organism-based; conditions: in vivo
[28] = Apparent volume of distribution in Sprague-Dawley rat at 2 mg/kg, iv measured upto 12 hrs by UPLC-MS/ESI analysis; assay type: ADME, organism-based; conditions: in vivo, read-out: Vz
[29] = Clearance in Sprague-Dawley rat at 20 mg/kg, po measured upto 12 hrs by UPLC-MS/ESI analysis; assay type: ADME, organism-based; conditions: in vivo
[30] = Cmax in Sprague-Dawley rat at 20 mg/kg, po measured upto 12 hrs by UPLC-MS/ESI analysis; assay type: ADME, organism-based; set-up: time < 12 hrs, dose 20 mg/kg, route po; conditions: in vivo
[31] = Acute toxicity in C57 mouse assessed as survival rate at 40.96 mg/kg, po administered daily for 14 days relative to control; assay type: organism-based; conditions: in vivo, time 14 day, read-out: Activity
[32] = Acute toxicity in C57 mouse assessed as survival rate at 64 mg/kg, po administered daily for 14 days relative to control; assay type: organism-based; conditions: in vivo, time 14 day, read-out: Activity
[33] = tested on: B16-F10; test: Antitumor activity against mouse B16-F10 cells implanted in C57 mouse assessed as reduction in tumor volume at 2.5 mg/kg, ip administered every day for 14 days in the presence of NP19; assay type: functional, organism-based; conditions: time 14.0 day
[34] = Toxicity in C57 mouse implanted with mouse B16-F10 cells assessed as body weight loss at 2.5 mg/kg, ip administered every day for 14 days in the presence of NP19; assay type: organism-based; conditions: in vivo, 336 h, time 14 day
[35] = Toxicity in C57 mouse implanted with mouse B16-F10 cells assessed as pathological changes in heart at 5 mg/kg, ip administered every day for 14 days by H&E staining based microscopic analysis; assay type: organism-based; conditions: in vivo, 336 h, time 14 day
[36] = Toxicity in C57 mouse implanted with mouse B16-F10 cells assessed as pathological changes in kidney at 2.5 mg/kg, ip administered every day for 14 days in the presence of NP19 by H&E staining based microscopic analysis; assay type: organism-based; conditions: in vivo, 336 h, time 14 day
[37] = Toxicity in C57 mouse implanted with mouse B16-F10 cells assessed as pathological changes in heart at 2.5 mg/kg, ip administered every day for 14 days in the presence of NP19 by H&E staining based microscopic analysis; assay type: organism-based; conditions: in vivo, 336 h, time 14 day

Chain of Tubulin (Sus scrofa) (P02550 whole entry, looked up): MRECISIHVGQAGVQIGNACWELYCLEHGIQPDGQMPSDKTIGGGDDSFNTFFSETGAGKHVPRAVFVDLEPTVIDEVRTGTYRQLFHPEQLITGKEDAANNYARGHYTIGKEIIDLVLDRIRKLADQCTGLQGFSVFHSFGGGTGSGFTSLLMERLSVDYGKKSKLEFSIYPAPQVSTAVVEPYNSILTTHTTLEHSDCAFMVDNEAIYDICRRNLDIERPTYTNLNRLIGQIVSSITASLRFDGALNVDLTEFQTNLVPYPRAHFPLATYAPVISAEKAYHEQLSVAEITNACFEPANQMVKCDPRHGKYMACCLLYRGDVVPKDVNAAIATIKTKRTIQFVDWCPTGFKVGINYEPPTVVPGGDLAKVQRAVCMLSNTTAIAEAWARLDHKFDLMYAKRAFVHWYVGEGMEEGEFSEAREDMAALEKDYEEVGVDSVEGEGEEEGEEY
Chain of Tubulin (Sus scrofa) (P02554 whole entry, looked up): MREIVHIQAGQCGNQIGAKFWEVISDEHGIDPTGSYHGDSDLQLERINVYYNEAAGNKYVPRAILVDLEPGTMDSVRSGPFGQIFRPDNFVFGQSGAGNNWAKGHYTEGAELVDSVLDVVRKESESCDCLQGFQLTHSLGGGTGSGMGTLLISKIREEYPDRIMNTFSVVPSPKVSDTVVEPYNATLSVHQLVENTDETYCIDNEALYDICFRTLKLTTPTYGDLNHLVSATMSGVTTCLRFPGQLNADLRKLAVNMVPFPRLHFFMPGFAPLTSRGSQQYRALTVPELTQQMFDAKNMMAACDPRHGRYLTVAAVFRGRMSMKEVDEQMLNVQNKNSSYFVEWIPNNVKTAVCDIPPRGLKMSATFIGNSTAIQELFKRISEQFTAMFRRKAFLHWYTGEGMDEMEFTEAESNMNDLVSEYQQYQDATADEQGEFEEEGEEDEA

SMILES: COc1cc(-c2nccc3[nH]c(-c4cccc5c4ccn5C)nc23)cc(OC)c1OC
- Activity [1]: 0.954%
- Ratio IC50 [2]: 3.2
- pIC50 [3]: 8.22
- pIC50 [4]: 8.05
- inhibition [5]: Dose-Dependent Effect
- IC50 [6]: 1010 nM
- Activity [7]: 49.61%
- Activity [8]: 27.34%
- Activity [9]: 41.37%
- Activity [10]: 20.19%
- Activity [11]: 55.89%
- viability at 0.0005 µM [12]: 84.6%
- Activity [13]: 0.428%
- viability at 0.001 µM [14]: 59.6%
- Activity [15]: 8.87%
- Activity [16]: 83.1%
- Activity [17]: 0.201%
- Activity [18]: 42.2%
- Activity [19]: 32.2%
- Activity [20]: Dose-Dependent Effect
- IC50 at 24 h [21]: 62.1 nM
- AUC(0-t) at 12 h [22]: 3060 ng·h/mL
- AUC(0-inf) [23]: 3080 ng·h/mL
- MRT last at 12 h [24]: 1.79 h
- MRT inf [25]: 1.86 h
- half-life [26]: 1.08 h
- Tmax [27]: 4.98 min
- Vd [28]: 1.08 L/kg
- CL/F [29]: 107 mL/min/kg
- Cmax [30]: 879 ng/mL
- survival at 336 h [31]: 100%
- survival at 336 h [32]: 60%
- Activity [33]: Active
- Activity [34]: Non-Toxic
- Activity [35]: Non-Toxic
- Activity [36]: Non-Toxic
- Activity [37]: Non-Toxic

Source: ChEMBL document CHEMBL5338766, “X-ray Crystal Structure-Guided Discovery of Novel Indole Analogues as Colchicine-Binding Site Tubulin Inhibitors with Immune-Potentiating and Antitumor Effects against Melanoma” (J Med Chem, 2023)
